Experimental findings from patent US7786142B2, “Heterocyclic compounds as pSTAT3/IL-6 inhibitors” (Orchid Research Laboratories, Ltd., priority 2005, dated 2010) are described below.

What is called melting point is the temperature, or range, at which the solid turns liquid. With `COc1ccc(CC(=O)N2CCN(CC(O)COc3cccc4[nH]c5ccccc5c34)CC2)cc1` (stereo not shown), the melting point was 166 to 169 °C.

In the case of `O=C(Cc1c(F)c(F)c(F)c(F)c1F)N1CCN(CC(O)COc2cccc3[nH]c4ccccc4c23)CC1` (stereo not shown), the melting point lay in the range of 93 to 96 °C.

For `O=C(Cc1ccc(O)c(F)c1)N1CCN(CC(O)COc2cccc3[nH]c4ccccc4c23)CC1` (stereo not shown), the melting point lay in the range of 111 to 113 °C.

Take `O=C(Cc1ccc(F)cc1)N1CCN(CC(O)COc2cccc3[nH]c4ccccc4c23)CC1` (stereo not shown): the melting point lay in the range of 79 to 81 °C.

`OC(COc1cccc2[nH]c3ccccc3c12)CN1CCN(Cc2nccs2)CC1` (stereo not shown) [Example 28, 1-(9H-carbazol-4-yloxy)-3-{4-[(thiazol-2-yl)methyl]piperazin-1-yl}propan-2-ol] displayed a melting point of 57 to 62 °C.

As for `OC(COc1cccc2[nH]c3ccccc3c12)CN1CCN(CC2CC2)CC1` (stereo not shown) [Example 29, 1-(9H-carbazol-4-yloxy)-3-[4-(cyclopropylmethyl)piperazin-1-yl]propan-2-ol], the melting point lay in the range of 51 to 56 °C.

`OC(COc1cccc2[nH]c3ccccc3c12)CN1CCN(Cc2ccc(Br)cc2F)CC1` (stereo not shown) [Example 32, 1-(9H-carbazol-4-yloxy)-3-[4-(4-bromo-2-fluorobenzyl)piperazin-1-yl]propan-2-ol] came in with a melting point of 68 to 70 °C.

With `CSc1ccc(CN2CCN(CC(O)COc3cccc4[nH]c5ccccc5c34)CC2)cc1` (stereo not shown) [Example 33, 1-(9H-carbazol-4-yloxy)-3-[4-(4-methylthiobenzyl)piperazin-1-yl]propan-2-ol], the melting point lay within 69 to 71 °C.

`COc1cc(OC)c(CN2CCN(CC(O)COc3cccc4[nH]c5ccccc5c34)CC2)c(OC)c1` (stereo not shown) [Example 34, 1-(9H-carbazol-4-yloxy)-3-[4-(2,4,6-trimethoxybenzyl)piperazin-1-yl]propan-2-ol]: the melting point was 119 to 122 °C.

`O=C(c1cc([N+](=O)[O-])[nH]n1)N1CCN(CC(O)COc2cccc3[nH]c4ccccc4c23)CC1` (stereo not shown) [Example 36, 1-(9H-carbazol-4-yloxy)-3-[4-(5-nitro-1H-pyrazole-3-carbonyl)piperazin-1-yl]propan-2-ol] had a melting point of 140 to 144 °C.

`O=C(c1ccco1)N1CCN(CC(O)COc2cccc3[nH]c4ccccc4c23)CC1` (stereo not shown) [Example 37, 1-(9H-carbazol-4-yloxy)-3-[4-(2-furoyl)piperazin-1-yl]propan-2-ol] came in with a melting point of 85.1 to 89.1 °C.

`O=C(c1cc2ccccc2[nH]1)N1CCN(CC(O)COc2cccc3[nH]c4ccccc4c23)CC1` (stereo not shown) [Example 38, 1-(9H-carbazol-4-yloxy)-3-[4-(1H-indole-2-carbonyl)piperazin-1-yl]propan-2-ol] came in with a melting point of 215 to 218 °C.

As for `O=C(c1cccs1)N1CCN(CC(O)COc2cccc3[nH]c4ccccc4c23)CC1` (stereo not shown) [Example 39, 1-(9H-carbazol-4-yloxy)-3-[4-(thiophene-2-carbonyl)piperazin-1-yl]propan-2-ol], the melting point is 80 to 83 °C.

Take `O=C(c1ccc(-c2ccc([N+](=O)[O-])cc2)o1)N1CCN(CC(O)COc2cccc3[nH]c4ccccc4c23)CC1` (stereo not shown) [Example 40, 1-(9H-carbazol-4-yloxy)-3-{4-[5-(4-nitrophenyl)-2-furoyl]piperazin-1 yl}propan-2-ol]: the melting point was in the range of 101 to 104 °C.

Compound `COc1ccc(C(=O)N2CCN(CC(O)COc3cccc4[nH]c5ccccc5c34)CC2)cc1OC` (stereo not shown) [Example 42, 1-(9H-carbazol-4-yloxy)-3-[4-(3,4-dimethoxybenzoyl)piperazin-1-yl]propan-2-ol] returned a melting point of 98 to 101 °C.

The compound `O=C(/C=C/c1ccc2c(c1)OCO2)N1CCN(CC(O)COc2cccc3[nH]c4ccccc4c23)CC1` (stereo not shown) [Example 45, 1-(9H-carbazol-4-yloxy)-3-{4-[(2E)-3-(1,3-benzodioxol-5-yl)acryloyl]piperazin-1-yl}propan-2-ol] came in with a melting point of 90 to 93 °C.
